This note sets out measurements from patent EP0606044A1, “Lactones compounds useful as pharmaceuticals” (SANDOZ LTD., priority 1992, dated 1994).

Series [1] can be described thus: Solubility (characteristics of the metabolite). Format: physicochemical. The text has this: Formula I', which is formula I in which R₄ and R₅ are methoxy, R₆ is OH, -a-b- is cis- -CH=CH-, c is C=O, -d-e- is -CHOH-CHOH-, -f-g- is trans- -CH=CH- and the asymmetric carbon atoms marked * all have the S-configuration [drawing 2] is the structure which has been assigned to the novel metabolite designated 87-250904-F1 and having the following characteristics: White needles (from methanol/water 1:1), m.p. […] HPLC : Column : LiChrospher 100 RP-8 (5µm) (LiChroCART 125-4, Merck) Mobile phase: acetonitrile/water/orthophosphoric acid 350:650:0.175 (by vol.) Flow rate: 1.0 ml/min Detection: UV 210 nm Retention time: 3.8 min.

The next series concerns THP-1 cells. Kind of series: Cytokine release from THP-1 cells (γ-interferon/LPS stimulated; ELISA, RIA, LDH, DNA). Format: cell-based. The following applies: Homo sapiens, γ-interferon, LPS, 40 hours, read-out: IC₅₀ value in the THP-1 test (concentration of compound which inhibits to 50 % the release of IL-1β). As to the method: 1. Cytokine Release from THP-1 Cells
The THP-1 cell line is generally available and is described by Tsuchiya et al, Int. J. Cancer 26 171-176 (1980). 900 µl THP-1 cells (0.5 x 10⁶ cells) together with 100 U γ-interferon/0.9 ml RPMI 1640 medium (containing 2 mM L-glutamine and 5 % heat-inactivated foetal calf serum) are pipetted into 24 well culture plates. 100 µl of the compound to be tested are then added. After 3 hours at 37°C in 5 % CO2/95 % air, 10 µl lipopolysaccharide 500 µg/ml is added and the incubation continued for a further 40 hours. Appropriate controls (with and without stimulus, solvent) are also included. The media are then removed and clarified by centrifugation at 1000 g for 10 min. 1.0 ml digitonin 0.01 % is added to the wells to lyse the cells which are loosened by scraping with a rubber policeman and left at 4°C for 10 min. […] IL-1β, IL-6 and TNF-α assays are determined using commercially available ELISA kits (Cistron), PGE2 is measured using a standard RIA and DNA fluorimetrically using DAPI (4',6-diamidino-2-phenylindole.2HCl) […]
For the above uses the required dosage will of course vary depending on the mode of administration, the particular condition to be treated and the effect desired. […] It has been determined that the compound of Formula I' has an IC₅₀ value in the THP-1 test (concentration of compound which inhibits to 50 % the release of IL-1β) of 0.06 µM.

For `COc1cc(O)c2c(c1OC)/C=C/C[C@H](O)[C@H](O)C(=O)/C=C\C[C@H](C)OC2=O` [Formula I', [3S-(3R*, 5Z, 8R*, 9R*, 11E)]-3,4,9,10-tetrahydro-8,9,16-trihydroxy-13,14-dimethoxy-3-methyl-1H[2] benzoxacyclotetradecin-1,7[8H] dione], in series [1] (methanol, DMSO, chloroform), the “Solubility in methanol, DMSO, chloroform” value is reported as “readily soluble”. Further, in series [1] (water), the Solubility in water entry is listed as “Almost insoluble”.

For `COc1cc(O)c2c(c1OC)/C=C/C[C@H](O)[C@H](O)C(=O)/C=C\C[C@H](C)OC2=O` [Formula I'], the IC50 with THP-1 cells stood at 60 nM.
